The values that follow come from ChEMBL document CHEMBL5674860, “Optimized Dual-Glo Assay to identify co-culture-induced drug vulnerabilities in 3D CRC models” (2024).

Format in all cases: functional, Homo sapiens
Holding throughout (set-up): dose or concentration left out as unconfirmed

Test [1] relates to Colon cancer organoid. In words: Optimized Dual-Glo assay to identify co-culture induced drug vulnerabilities using donated chemical probes and chemogenomics kinase set in O06 CRC organoid and F06 CAF mono and co-culture. […] Cell viability is reported both mono and co-culture models.
Test [2] deals with Colon cancer organoid. As to the kind of experiment: Optimized Dual-Glo assay to identify co-culture induced drug vulnerabilities using donated chemical probes and chemogenomics kinase set in O14 CRC organoid and F14 CAF mono and co-culture. […] Cell viability is reported both mono and co-culture models.
For test [3], the system named is Colon cancer organoid. In words: Optimized Dual-Glo assay to identify co-culture induced drug vulnerabilities using donated chemical probes and chemogenomics kinase set in O20 CRC organoid and F20 CAF mono and co-culture. […] Cell viability is reported both mono and co-culture models.
Where [4] appears, read: Culture type Co-Culture, Transduced with Lucferase2-P2A-EGFP lentivirus.
The mark [5] stands for this setting: Culture type Co-Culture, Transduced with Renilla-dsRed lentivirus.
[6] abbreviates: Culture type Mono-Culture, Transduced with Lucferase2-P2A-EGFP lentivirus.
Where [7] appears, read: Culture type Mono-Culture, Transduced with Renilla-dsRed lentivirus.

The structures appear in SMILES notation.

Consider `Cc1ccc(-c2ccc3c(ccc4sc5c(c43)NC[C@@H](C)NC5=O)n2)cn1`, for which the “Cell Viability” value in test [1] (setting [4]) was 100.355%; in test [1] (setting [5]) it was 85.371%; in test [1] (setting [6]), 114.604%; in test [1] (setting [7]), 88.0896%; in test [2] (setting [4]) it was 126.339%; in test [2] (setting [5]), 65.0441%. In addition, the “Cell Viability” value in test [2] (setting [6]) came out at 182.208%; in test [2] (setting [7]), 70.7861%; in test [3] (setting [4]) it was 152.499%; in test [3] (setting [5]) it was 70.7863%; in test [3] (setting [6]), 154.638%; in test [3] (setting [7]), 67.5844%.

In the case of `CCOc1cc(N2CCC(O)CC2)ccc1Nc1ncc2c(n1)N(C)c1ccccc1C(=O)N2C`, the “Cell Viability” value in test [1] (setting [4]) came to 85.6087%; in test [1] (setting [5]) it was 128.987%; in test [1] (setting [6]), 73.5863%; in test [1] (setting [7]) it was 165.88%; in test [2] (setting [4]), 76.0009%; in test [2] (setting [5]), 186.577%. For the same molecule, the “Cell Viability” value is 84.1713% in test [2] (setting [6]); 122.992% in test [2] (setting [7]); 81.7751% in test [3] (setting [4]); 117.331% in test [3] (setting [5]); 65.2469% in test [3] (setting [6]); 115.42% in test [3] (setting [7]).

In the case of `Nc1ccc(C(=O)Nc2cccc(-c3nc(N4CCOCC4)c4oc5ncccc5c4n3)c2)cn1`, the “Cell Viability” value in test [1] (setting [4]) is recorded as 78.745%; in test [1] (setting [5]), 81.5262%; in test [1] (setting [6]) it was 28.4733%; in test [1] (setting [7]), 93.3288%; in test [2] (setting [4]), 67.7704%; in test [2] (setting [5]), 105.191%. For the same molecule, the “Cell Viability” value in test [2] (setting [6]) is 42.3601%; in test [2] (setting [7]) it was 61.5192%; in test [3] (setting [4]), 142.389%; in test [3] (setting [5]), 75.1771%; in test [3] (setting [6]), 60.1963%; in test [3] (setting [7]), 81.7819%.

As for `O=C1[C@H](Cc2ccc(O)cc2)N2C(=O)CCN(C(=O)NCc3ccccc3)[C@H]2CN1Cc1cccc2ccccc12`, the “Cell Viability” value in test [1] (setting [4]) is given as 79.2211%; in test [1] (setting [5]) it was 124.216%; in test [1] (setting [6]), 100.059%; in test [1] (setting [7]), 61.7438%; in test [2] (setting [4]) it was 20.45%; in test [2] (setting [5]), 145.967%. Moreover, the “Cell Viability” value came to 17.2238% in test [2] (setting [6]); 77.2237% in test [2] (setting [7]); 89.6614% in test [3] (setting [4]); 144.616% in test [3] (setting [5]); 131.376% in test [3] (setting [6]); 33.7268% in test [3] (setting [7]).

On to `CCOC(=O)Nc1cc(-c2ccc(C)c(NS(C)(=O)=O)c2)nn2c(C)nnc12`, for which the “Cell Viability” value in test [1] (setting [4]) is on record as 112.605%; in test [1] (setting [5]) it was 266.102%; in test [1] (setting [6]), 81.8905%; in test [1] (setting [7]) it was 215.442%; in test [2] (setting [4]) it was 71.1092%; in test [2] (setting [5]) it was 228.167%. Further, the “Cell Viability” value in test [2] (setting [6]) worked out at 66.8371%; in test [2] (setting [7]), 176.186%; in test [3] (setting [4]), 38.58%; in test [3] (setting [5]) it was 177.965%; in test [3] (setting [6]) it was 39.5437%; in test [3] (setting [7]), 109.867%.

Take `COc1ccccc1-c1cc(Nc2cccc(CS(N)(=O)=O)c2)ncn1`: the “Cell Viability” value in test [1] (setting [4]) is 105.6%; in test [1] (setting [5]), 95.8866%; in test [1] (setting [6]) it was 67.576%; in test [1] (setting [7]), 79.9168%; in test [2] (setting [4]), 107.839%; in test [2] (setting [5]) it was 92.9577%. Moreover, the “Cell Viability” value in test [2] (setting [6]) is 111.603%; in test [2] (setting [7]) it was 77.4194%; in test [3] (setting [4]), 104.861%; in test [3] (setting [5]), 97.4583%; in test [3] (setting [6]), 84.7968%; in test [3] (setting [7]), 76.3761%.

With `COc1ccccc1C(=O)Nc1cc2c(cc1N1CCCC1)n(C)c(=O)n2C`, the “Cell Viability” value in test [2] (setting [4]) is given as 94.3985%; in test [2] (setting [5]), 117.237%; in test [2] (setting [6]) it was 96.8906%; in test [2] (setting [7]), 95.8256%; in test [3] (setting [4]) it was 113.69%; in test [3] (setting [5]), 143.545%. The “Cell Viability” value is given as 104.265% in test [3] (setting [6]) and 110.449% in test [3] (setting [7]).

With `CC1=C(C(=O)Nc2cc3cn[nH]c3cc2F)C(c2ccc(C(F)(F)F)cc2)CC(=O)N1` (stereo not drawn), the “Cell Viability” value in test [1] (setting [4]) is 110.512%; in test [1] (setting [5]) it was 74.1449%; in test [1] (setting [6]), 112.137%; in test [1] (setting [7]), 107.646%; in test [2] (setting [4]) it was 79.4624%; in test [2] (setting [5]) it was 111.728%. In addition, the “Cell Viability” value is recorded as 79.1311% in test [2] (setting [6]); 103.404% in test [2] (setting [7]); 133.522% in test [3] (setting [4]); 94.2958% in test [3] (setting [5]); 98.8555% in test [3] (setting [6]); 95.2955% in test [3] (setting [7]).

In the case of `COc1cc(-c2cn(C)c(=O)c3cnccc23)c(OC)cc1CN(C)C`, the “Cell Viability” value stood at 79.252% in test [1] (setting [4]); 108.934% in test [1] (setting [5]); 73.0791% in test [1] (setting [6]); 96.9165% in test [1] (setting [7]); 86.2085% in test [2] (setting [4]); 136.409% in test [2] (setting [5]). Moreover, the “Cell Viability” value in test [2] (setting [6]) amounted to 67.8836%; in test [2] (setting [7]), 114.194%; in test [3] (setting [4]) it was 61.2069%; in test [3] (setting [5]), 139.676%; in test [3] (setting [6]) it was 83.2777%; in test [3] (setting [7]), 82.5544%.

For `CN(C)C(=O)/C(C#N)=C/c1ccc(-c2nc3cnc4[nH]ccc4c3n2C2CCCCC2)o1`, the “Cell Viability” value in test [1] (setting [4]) came out at 95.2227%; in test [1] (setting [5]) it was 96.9669%; in test [1] (setting [6]), 138.382%; in test [1] (setting [7]), 96.6584%; in test [2] (setting [4]) it was 115.273%; in test [2] (setting [5]), 92.8472%. In addition, the “Cell Viability” value is listed as 120.035% in test [2] (setting [6]); 91.5278% in test [2] (setting [7]); 75.2682% in test [3] (setting [4]); 130.215% in test [3] (setting [5]); 113.424% in test [3] (setting [6]); 104.709% in test [3] (setting [7]).

As for `Cl.Cl.NC1(c2ccc(-c3nc4ccn5c(=O)[nH]nc5c4cc3-c3ccccc3)cc2)CCC1`, the “Cell Viability” value in test [1] (setting [4]) came to 52.26%; in test [1] (setting [5]) it was 91.614%; in test [1] (setting [6]), 79.8603%; in test [1] (setting [7]), 69.8373%; in test [2] (setting [4]) it was 42.2425%; in test [2] (setting [5]), 103.472%. Also, the “Cell Viability” value in test [2] (setting [6]) came to 90.3868%; in test [2] (setting [7]), 88.3443%; in test [3] (setting [4]) it was 44.0229%; in test [3] (setting [5]), 145.22%; in test [3] (setting [6]), 34.39%; in test [3] (setting [7]), 114.515%.

Consider `Cn1cc(-c2ccc3occ(-c4ccccc4-c4ccccc4)c3n2)cn1`, for which the “Cell Viability” value worked out at 137.24% in test [1] (setting [4]); 150.558% in test [1] (setting [5]); 120.153% in test [1] (setting [6]); 121.662% in test [1] (setting [7]); 101.217% in test [2] (setting [4]); 93.8283% in test [2] (setting [5]). For the same molecule, the “Cell Viability” value in test [2] (setting [6]) came out at 119.561%; in test [2] (setting [7]) it was 96.0811%; in test [3] (setting [4]), 88.7548%; in test [3] (setting [5]) it was 89.3741%; in test [3] (setting [6]) it was 123.78%; in test [3] (setting [7]), 115.172%.

Regarding `Cn1cc(-c2ccc3occ(-c4cccc(-c5ccncc5)c4)c3n2)cn1`, the “Cell Viability” value came to 91.2802% in test [1] (setting [4]); 94.5664% in test [1] (setting [5]); 138.621% in test [1] (setting [6]); 110.377% in test [1] (setting [7]); 113.323% in test [2] (setting [4]); 67.5057% in test [2] (setting [5]). Moreover, the “Cell Viability” value came to 72.9931% in test [2] (setting [6]); 81.4959% in test [2] (setting [7]); 65.7439% in test [3] (setting [4]); 132.411% in test [3] (setting [5]); 69.6903% in test [3] (setting [6]); 72.543% in test [3] (setting [7]).

In the case of `CN(C)C(=O)/C(C#N)=C/c1ccc(-c2nc3cnc4c(ccn4C)c3n2C2CCCCC2)o1`, the “Cell Viability” value in test [1] (setting [4]) came to 100.774%; in test [1] (setting [5]), 167.563%; in test [1] (setting [6]) it was 117.157%; in test [1] (setting [7]) it was 133.695%; in test [2] (setting [4]), 95.1732%; in test [2] (setting [5]), 102.012%. Moreover, the “Cell Viability” value stood at 142.854% in test [2] (setting [6]); 112.554% in test [2] (setting [7]); 49.7098% in test [3] (setting [4]); 127.191% in test [3] (setting [5]); 136.658% in test [3] (setting [6]); 125.979% in test [3] (setting [7]).

Take `CS(=O)(=O)N1CCN(Cc2cc3nc(-c4cccc5[nH]ncc45)nc(N4CCOCC4)c3s2)CC1` [PICTILISIB]: the “Cell Viability” value in test [1] (setting [4]) amounted to 43.124%; in test [1] (setting [5]), 60.0718%; in test [1] (setting [6]) it was 35.1251%; in test [1] (setting [7]), 58.2983%.
